Reference: patent publication US20230348426A1, “OXOPYRROLIDINE FPR2 AGONISTS” (Bristol-Myers Squibb Company, priority 2020, published 2023)

Assays:
[1] = biological target: human FPR2 (Homo sapiens (Human), UniProt P25090); assay: FPR2 cyclic adenosine monophosphate (cAMP) assay; type: cell-based; conditions: CHO cells overexpressing human FPR2; forskolin 5 µM; inhibition of cAMP production; read-out: hFPR2 cAMP2 EC50
In short: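 Inhibition of forskolin-driven (5 µM) cAMP, with 200 µM IBMX, measured in human FPR2-expressing CHO cells, 2,000 per well, 30 min at room temperature; compounds tested 0.020 nM to 100 µM in 1% DMSO. HTRF 665/590 ratio converted to cAMP via calibration curve, then 4-parameter fit.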

[2] = biological target: human FPR1 (Homo sapiens (Human), UniProt P21462); assay: FPR1 cyclic adenosine monophosphate (cAMP) assay; type: cell-based; conditions: CHO cells overexpressing human FPR1; forskolin 10 µM; inhibition of cAMP production; read-out: hFPR1 cAMP EC50
Sequence of human FPR1 (P21462 whole entry): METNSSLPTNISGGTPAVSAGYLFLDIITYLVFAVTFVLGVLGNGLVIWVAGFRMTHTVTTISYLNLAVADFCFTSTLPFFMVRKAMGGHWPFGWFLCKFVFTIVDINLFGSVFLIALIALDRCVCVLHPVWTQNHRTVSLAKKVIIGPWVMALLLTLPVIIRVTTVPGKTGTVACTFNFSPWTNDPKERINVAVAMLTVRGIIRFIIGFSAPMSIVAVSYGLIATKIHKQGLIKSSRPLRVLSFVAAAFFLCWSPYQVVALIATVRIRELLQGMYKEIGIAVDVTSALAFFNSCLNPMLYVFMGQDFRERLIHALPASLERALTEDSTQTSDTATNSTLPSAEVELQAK
In short: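 Human FPR1-expressing CHO cells were used at 4,000 per well, with compound at 0.020 nM–100 µM in 1% DMSO. Potency came from a 4-parameter logistic fit.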

Sequence of human FPR2 (P25090 whole entry): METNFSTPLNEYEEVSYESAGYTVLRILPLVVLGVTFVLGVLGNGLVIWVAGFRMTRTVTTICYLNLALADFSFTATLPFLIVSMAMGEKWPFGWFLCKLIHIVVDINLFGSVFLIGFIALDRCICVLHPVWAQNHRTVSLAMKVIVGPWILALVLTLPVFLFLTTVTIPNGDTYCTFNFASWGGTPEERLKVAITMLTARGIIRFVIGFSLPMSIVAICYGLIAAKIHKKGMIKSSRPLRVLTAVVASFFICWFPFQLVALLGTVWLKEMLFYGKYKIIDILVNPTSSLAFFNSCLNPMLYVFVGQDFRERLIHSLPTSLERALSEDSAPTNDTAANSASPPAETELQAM

| Compound | EC50 [1] [nM] | EC50 [2] [nM] |
| --- | --- | --- |
| COc1cc(F)c([C@@H]2CN(c3cccn(CC(F)F)c3=O)C(=O)[C@H]2NC(=O)c2ccc(C#N)cc2)c(F)c1 [Example 321] | 10 | 570 |
| COCCn1cccc(N2C[C@@H](c3c(F)cc(OC)cc3F)[C@H](NC(=O)c3ccc(OC)cc3)C2=O)c1=O [Example 342] | 32 | 830 |
| COc1cc(F)c([C@@H]2CN(c3cccnn3)C(=O)[C@H]2NC(=O)c2ccc(OC(F)F)cc2)c(F)c1 [Example 300] | 9.3 | 360 |
| COc1cc(F)c([C@H]2[C@H](NC(=O)c3ccc(OC(F)F)cc3)C(=O)N(c3ncccc3OC(C)C)[C@H]2C)c(F)c1 [Example 126] | 3.3 | 2300 |
| COc1cc(F)c([C@@H]2CN(c3cccn(CC(C)(CO)CO)c3=O)C(=O)[C@H]2NC(=O)c2ccc(OC(F)F)cc2)c(F)c1 [Example 218] | 5.7 | 140 |
| COc1cc(F)c([C@@H]2CN(c3nccc(N4CCC(C)(O)C4)c3C(F)(F)F)C(=O)[C@H]2NC(=O)c2ccc(Cl)cc2)c(F)c1 (stereo partly shown) [Example 480] | 5.7 | 300 |
| COc1cc(F)c([C@@H]2CN(c3ccc(C)n(C)c3=O)C(=O)[C@H]2NC(=O)c2ccc(OC(F)F)cc2)c(F)c1 [Example 324] | 11 | 130 |
| COc1cc(F)c([C@@H]2CN(c3nc(NC4CCOC4)ccc3F)C(=O)[C@H]2NC(=O)c2ccc(OC(F)F)cc2)c(F)c1 (stereo partly shown) [Example 271] | 7.8 | 1400 |
| COc1cc(F)c([C@@H]2CN(c3cccn(CC(F)(F)F)c3=O)C(=O)[C@H]2NC(=O)c2ccc(OC(F)(F)F)cc2)c(F)c1 [Example 191] | 5 | 90 |
| COc1cc(F)c([C@@H]2CN(c3c(C)ccn(CC4CCOC4)c3=O)C(=O)[C@H]2NC(=O)c2ccc(OC(F)F)cc2)c(F)c1 (stereo partly shown) [Example 693] | 2 | 2.5 |
| O=C(N[C@@H]1C(=O)N(c2cccn(CC(O)C(F)(F)F)c2=O)C[C@H]1c1ccc(Cl)cc1)c1ccc(OC(F)(F)F)cc1 (stereo partly shown) [Example 355] | 4.5 | 4 |
| COc1cc(F)c([C@@H]2CN(c3cccc(C4=CNCCC4)n3)C(=O)[C@H]2NC(=O)c2ccc(OC(F)F)cc2)c(F)c1 [Example 500] | 2.2 | 710 |
| COCC(CO)n1cccc(N2C(=O)[C@@H](NC(=O)c3ccc(OC(F)(F)F)cc3)[C@H](c3c(F)cc(OC)cc3F)[C@@H]2C)c1=O (stereo partly shown) [Example 175] | 4.6 | 9.3 |
| COc1cc(F)c([C@@H]2CN(c3nc(N4C[C@@H](C)N(C)[C@@H](C)C4)ccc3OC)C(=O)[C@H]2NC(=O)c2ccc(OC(F)F)cc2)c(F)c1 [Example 225] | 6.2 | 630 |
| COc1cc(F)c([C@@H]2CN(c3nc(N4CC(C)OCC4=O)ccc3F)C(=O)[C@H]2NC(=O)c2ccc(OC(F)(F)F)cc2)c(F)c1 (stereo partly shown) [Example 124] | 3.3 | 47 |
| COc1cc(F)c([C@@H]2CN(c3cnn4c3OCCC4)C(=O)[C@H]2NC(=O)c2ccc(OC(F)F)cc2)c(F)c1 [Example 597] | 1.5 | 210 |
| COc1ccc([C@@H]2CN(c3cccn(CCO)c3=O)C(=O)[C@H]2NC(=O)c2ccc(OC(F)(F)F)cc2)c(F)c1 [Example 63] | 1.7 | 16 |
| COc1cc(F)c([C@@H]2CN(c3cc(F)cc(C(C)(C)O)c3)C(=O)[C@H]2NC(=O)c2ccc(Cl)cc2)c(F)c1 [Example 267] | 7.7 | 1600 |
| COc1ccc([C@@H]2CN(c3cccn(CC(C)O)c3=O)C(=O)[C@H]2NC(=O)c2ccc(OC(F)F)cc2)c(F)c1 (stereo partly shown) [Example 436] | < 5 | 9 |
| COc1cc(F)c([C@@H]2CN(c3c(C)ccn(C4CCOC4)c3=O)C(=O)[C@H]2NC(=O)c2ccc(OC(F)(F)F)cc2)c(F)c1 (stereo partly shown) [Example 655] | 3.8 | 1.2 |
| COc1cc(F)c([C@@H]2CN(c3nccc(NC4CC4)c3C(F)(F)F)C(=O)[C@H]2NC(=O)c2ccc(Cl)cc2)c(F)c1 [Example 163] | 4.2 | 1200 |
| COc1cc(F)c([C@@H]2CN(c3c(C)ccn(C4CCC4)c3=O)C(=O)[C@H]2NC(=O)c2ccc(OC(F)(F)F)cc2)c(F)c1 [Example 458] | 1.2 | 0.8 |
| COc1cc(F)c([C@@H]2CN(c3c(C)ccn(CC4CNC(=O)O4)c3=O)C(=O)[C@H]2NC(=O)c2ccc(OC(F)F)cc2)c(F)c1 (stereo partly shown) [Example 665] | < 10 | 7.4 |
| COc1cc(F)c([C@@H]2CN(c3nccc(NCCS(C)(=O)=O)c3C(F)(F)F)C(=O)[C@H]2NC(=O)c2ccc(Cl)cc2)c(F)c1 [Example 451] | 2 | 1900 |
| COc1cc(F)c([C@@H]2CN(c3c(C)ccn([C@H]4COC[C@@H]4O)c3=O)C(=O)[C@H]2NC(=O)c2ccc(Cl)cc2)c(F)c1 [Example 623] | 11.5 | 160 |

| Compound | EC50 [1] [nM] | EC50 [2] [nM] |
| --- | --- | --- |
| COc1cc(F)c([C@@H]2CN(c3ccc[nH]c3=O)C(=O)[C@H]2NC(=O)c2ccc(OC(F)F)cc2)c(F)c1 [Example 95] | 2.7 | 160 |
| COc1cc(F)c([C@@H]2CN(c3ncccc3P(C)(C)=O)C(=O)[C@H]2NC(=O)c2ccc(OC(F)F)cc2)c(F)c1 [Example 25] | 35 | > 10000 |
| COc1cc(F)c([C@@H]2CN(c3nc(C4CCNCC4)ccc3C(F)(F)F)C(=O)[C@H]2NC(=O)c2ccc(OC(F)F)cc2)c(F)c1 [Example 270] | 7.8 | 180 |
| COc1cc(F)c([C@@H]2CN(c3c(C)ccn([C@H]4COC[C@@H]4O)c3=O)C(=O)[C@H]2NC(=O)c2ccc(OC(F)(F)F)cc2)c(F)c1 [Example 622] | 8.4 | 2.2 |
| COCCn1cccc(N2C[C@@H](c3c(F)cc(OC)cc3F)[C@H](NC(=O)c3ccc(OC(F)(F)F)cc3)C2=O)c1=O [Example 37] | 8.9 | 16 |
| COc1cc(F)c([C@@H]2CN(c3ccc(CO)n(C)c3=O)C(=O)[C@H]2NC(=O)c2ccc(OC(F)F)cc2)c(F)c1 [Example 243] | 6.7 | 170 |
| CCn1cncc(N2C[C@@H](c3c(F)cc(OC)cc3F)[C@H](NC(=O)c3ccc(Cl)cc3)C2=O)c1=O [Example 378] | 4.6 | 3800 |
| CCn1ccc(C)c(N2C[C@@H](c3ccc(OC)cc3F)[C@H](NC(=O)c3ccc(OC(F)(F)F)cc3)C2=O)c1=O [Example 183] | 4.8 | 0.6 |
| COc1cc(F)c([C@@H]2CN(c3nccc(N4CCN5CCCC5C4)c3C(F)(F)F)C(=O)[C@H]2NC(=O)c2ccc(Cl)cc2)c(F)c1 (stereo partly shown) [Example 481] | 1.2 | 2200 |
| CC(O)Cn1cccc(N2C[C@@H](c3ccc(Cl)cc3)[C@H](NC(=O)c3ccc(OC(F)F)cc3)C2=O)c1=O (stereo partly shown) [Example 409] | 6.3 | 36 |
| COc1ccc([C@@H]2CN(c3c(C)ccn(C4CCC4)c3=O)C(=O)[C@H]2NC(=O)c2ccc(OC(F)(F)F)cc2)cc1 [Example 687] | 1.8 | 0.28 |
| COc1cc(F)c([C@@H]2CN(c3ncccc3C(F)(F)F)C(=O)[C@H]2NC(=O)C2CCc3cc(OC)ccc3C2)c(F)c1 (stereo partly shown) [Example 349] | 570 | 5500 |
| COCCn1ccc(C)c(N2C[C@@H](c3c(F)cc(OC)cc3F)[C@H](NC(=O)c3ccc(Cl)cc3)C2=O)c1=O [Example 633] | 1.4 | 4.3 |
| COc1cc(F)c([C@@H]2CN(c3nc(N4C[C@@H](C)N(C)[C@@H](C)C4)ccc3OC)C(=O)[C@H]2NC(=O)c2ccc(Cl)cc2)c(F)c1 [Example 284] | 8.4 | 580 |
| COc1cc(F)c([C@@H]2CN(c3ccccc3P(C)(C)=O)C(=O)[C@H]2NC(=O)c2ccc(OC(F)F)cc2)c(F)c1 [Example 31] | 10 | 150 |
| COCCn1ccc(C)c(N2C[C@@H](c3ccc(OC)cc3F)[C@H](NC(=O)c3ccc(OC(F)(F)F)cc3)C2=O)c1=O [Example 288] | 8.6 | 0.8 |
| COc1cc(F)c([C@@H]2CN(c3cc(OCC4CCOC4)ncn3)C(=O)[C@H]2NC(=O)c2ccc(Cl)cc2)c(F)c1 (stereo partly shown) [Example 509] | 41 | 79 |
| COCCn1ccc(C)c(N2C[C@@H](c3ccc(OC)cc3)[C@H](NC(=O)c3ccc(Cl)cc3)C2=O)c1=O [Example 365] | 2.6 | 1 |
| COc1ccc([C@@H]2CN(c3c(C)ccn(CC(F)F)c3=O)C(=O)[C@H]2NC(=O)c2ccc(OC(F)F)cc2)cc1 [Example 632] | 0.9 | 3.7 |
| CCn1c2c(cc(N3C[C@@H](c4c(F)cc(OC)cc4F)[C@H](NC(=O)c4ccc(Cl)cc4)C3=O)c1=O)CCCC2 [Example 464] | 1.6 | 4 |
| COCCn1cccc(N2C[C@@H](c3c(F)cc(OC)cc3F)[C@H](NC(=O)c3ccc(C(F)(F)F)cc3)C2=O)c1=O [Example 277] | 8 | 210 |
| COc1ccnc(N2C[C@@H](c3c(F)cc(OC)cc3F)[C@H](NC(=O)c3ccc(OC(F)F)cc3)C2=O)c1 [Example 32] | 18 | 960 |
| COc1ccc([C@@H]2CN(c3c(C)ccn(CCO)c3=O)C(=O)[C@H]2NC(=O)c2ccc(OC(F)(F)F)cc2)cc1 [Example 108] | 2.9 | 0.4 |
| COc1ccc([C@@H]2CN(c3ccnn(CCC(F)(F)F)c3=O)C(=O)[C@H]2NC(=O)c2ccc(OC(F)F)cc2)cc1 [Example 672] | 7.9 | 5 |
| COc1cc(F)c([C@@H]2CN(c3cccc(N4C[C@@H]5C[C@H]4CN5C)n3)C(=O)[C@H]2NC(=O)c2ccc(OC(F)F)cc2)c(F)c1 [Example 531] | 1.6 | 3200 |
